In US20260000496A1, “MATERIALS AND METHODS FOR DRUG-INDUCED GINGIVAL OVERGROWTH” (Optimed Technology, Inc., priority 2019, published 2026):

Key:
[1] = test system: drug-induced gingival overgrowth (DIGO); assay: Mice study #1: pilot DIGO model (suture + cyclosporine), gingival overgrowth; assay type: in vivo, BALB/c mice
Text: Animal Study. […] Therefore, we developed a novel in-vivo anterior ligature model to develop DIGO. We examined two strains of mice, BALB/c and C57BL/6 were used. Sterile ligature (5-0 Silk thread) were placed around the lower central incisors on both sides in mice for 14 days at anaesthetized conditions using ketamine and xylazine. Mice were daily checked for placement of suture. […] The vehicle used to dissolve the drug was 10% ethanol and 10% polyethyleneglycol castor oil (Sigma-Aldrich, St. Louis MO) in sterilized distilled water to a volume of 100%. All mice were scarified at day 14. Euthanasia was performed using carbon dioxide followed by cervical dislocation.
In the combined prevention and treatment group, both modes of folic acid treatments were provided including PO and local gel application. […]
A 3Shape TRIOS® intraoral digital scanner was used to scan all of the dissected tissue and create a 3D STL (STereoLithography) file from each scan. […] The cropped scans were saved and imported into open source software platform 3DSlicer 4.8, where they were volumetrically analyzed using the “Volumes” module. The quantified volume values were statistically analyzed in GraphPad Prism® 7 (GraphPad Software Inc., CA, USA).

[2] = test system: Myd88; assay: Mice study #1: Myd88 immunohistochemistry of gingival tissue; assay type: in vivo; conditions: BALB/c
Protocol: Mice study #1: Pilot study to establish DIGO disease model. Sterile sutures (5-0 Silk thread, Ethicon, Johnson & Johnson, Somerville, NJ) were placed around the lower central incisors on both sides in BALB/c (Male) mice anaesthetized conditions using Ketamine (90-100 mg/kg bodyweight) and Xylazine (5-10 mg/kg body weight) using a 0.1 cc syringe with a 25-gauge needle intraperitoneally (FIG. 37). Mice were checked daily for intact suture placement and replaced when necessary. […] The controls were injected with the vehicle used to dissolve the drug, which was 10% ethanol and 10% polyethylene glycol castor oil (both Sigma-Aldrich, St. Louis MO) in distilled water. For preventive treatments, Folic acid was supplemented in the drinking water (10 μg/ml) ad libitum and methylcellulose gel with the Folic acid (100 μg/ml) microspheres was applied daily on the anterior gingiva. The three groups in this study were: • 1. Control group (n=1): no interventions were performed • 2. […] Treatments were continued for 28 days and digital images were captured over the time course.
Histopathology and Immunohistochemistry. […]
Immunohistochemical analysis. […] Then, we examined the histopathological images of the mice model type BALB/c and we assessed the expressions of the Myd88 in the disease group in comparison to the negative control and Folic acid treated group. […]

[3] = test system: LITAF; assay: Mice study #2: LITAF immunostaining of gingival tissue; assay type: in vivo, C57BL/6 mice
Protocol: (§1) Mice study #2: Validation study for preventive and active treatment for DIGO. […] One set of these mice were used as a control disease group (FIG. 23A) while the other group was treated with folic acid (gel and in drinking water) (FIG. 23B). In the prevention and treatment group, folic acid (10 μg/ml) (Sigma-Aldrich, St. Louis MO) was included in the drinking water from the time of suture placement until end of the study (14 days). Additionally, gel applications were repeated daily until the end of the study (14 days). The four groups in this study were: • 1. Control group (n=2): no interventions were performed • 2.
(§2) Histopathology and Immunohistochemistry. Mice mandibles were fixed in 10% formaldehyde for overnight at 4° C. on the shaker with 45 rpm and then the solutions were replaced with 70% ethanol. The tissues were decalcified with 10% ethylenediaminetetraacetic acid (EDTA) for 1 week and were dehydrated through graded ethanol, cleared with xylene, and embedded in paraffin. 4 μm serial sections were cut in a buccal-lingual direction and stained with Hematoxylin and Eosin (HE) and observed under light microscopy for histomorphological evaluations.
(§3) For immunohistochemistry, unstained sections were deparaffinized in xylene for 10 minutes and then transferred to ethanol for 20 minutes. […]

[4] = test system: NFκB; assay: Mice study #2: NFκB immunostaining of gingival tissue; assay type: in vivo, C57BL/6 mice
Protocol: as §1, §2, §3

Nc1nc2ncc(CNc3ccc(C(=O)N[C@@H](CCC(=O)O)C(=O)O)cc3)nc2c(=O)[nH]1 [folic acid]
gingival overgrowth, 3D volumetric analysis ([1]; prevention sample vs disease sample, overlaid scans): reduced gingival overgrowth | gingival swelling and inflammation, clinical images ([1]; prevention: folic acid p.o. (10 μg/ml drinking water) & local gel, apparent at day 8, vs disease group): less swelling and inflammation | Myd88 expression in the epithelium, disease group relative to folic acid prevention group [2]: significantly higher compared to the prevention and control groups | epithelial LITAF expression, disease group relative to folic acid-treated group [3]: higher in the disease group and uniformly distributed compared to the control and treated groups | NFκB epithelial expression, control, disease and folic acid-treated groups [4]: higher in the control group followed by the disease group
